From article PMC5309220, “Screening for Small Molecule Inhibitors of Statin-Induced APP C-terminal Toxic Fragment Production” (Frontiers in Pharmacology, 2017)
Entries after “also recorded” stand apart in the source; their conditions may differ. Counter-ions that a name gives are not always drawn.

How the values were obtained:
[1] = system: sAPPα in CHO-7W cultures; test: sAPPα ELISA in cell media; format: cell-based, Chinese hamster; settings: QVD, Sp, 3′F-Sp at 10, 30, and 30 mM, respectively (so in the source), with 10 μM cerivastatin, 24 h, vs CS alone, n = 2
Method: (§1) In an additional study (Supplementary Figure S5A), measurement of the α secretase fragment of full length (FL) APP – soluble APP alpha (sAPPα) – was performed using cell media by ELISA (IBL). Furthermore, in two studies (Supplementary Figures S5B,C), total protein levels in CHO-7W cell lysates were determined by Coomassie Plus protein assay (Pierce).
(§2) Supplementary file Data_Sheet_1.docx: FIGURE S5 Effect of lead compounds on protein concentration and sAPPα. […] (B) Total protein from lysates of CHO-7W cells treated with either 30 μM QVD or 10 μM Sp alone for 24 h was similar to the vehicle control (n = 1). (C) Total protein from CHO-7W lysates treated with 10 μM CS alone or in combination with QVD, Sp, or 3′F-Sp at the concentrations shown increased (n = 1). Statistical analysis was performed using one-way ANOVA and Dunnett post-test for comparison to the 10 μM CS control (^∗∗p < 0.001, ^∗∗∗p < 0.0001). Click here for additional data file.

[2] = system: CHO-7W cells; test: Total protein in CHO-7W cell lysates (Coomassie Plus); format: cell-based, Chinese hamster; settings: QVD, spiperone, 3′fluorobenzylspiperone at 30, 10, and 10 μM, respectively, with 10 μM cerivastatin, n = 1
Method: as §1, §2

[3] = system: cerivastatin-induced APPΔC31 production in CHO-7W cells; test: APPΔC31 ELISA validation assay, cerivastatin-induced; format: cell-based, Chinese hamster; settings: CHO-7W cells, 10 μM cerivastatin, 24 h; test concentration not given
Method: The APPΔC31 ELISA developed in partnership with Enzo Life Sciences (ADI-900-227) follows a standard sandwich ELISA design wherein a monoclonal N-terminal APP-specific antibody is used to coat the wells of the microtiter plate (capture antibody) and the anti-APPΔC31 cleavage site-specific polyclonal antibody serves as the detection antibody. An HRP-conjugated secondary antibody is then added and a colorimetric signal generated by enzymatic conversion of the tetramethylbenzidine (TMB) substrate. Protein levels were first determined using a colorimetric coomassie assay (Coomassie Plus, Thermo).
A subset of hits from our HTS was validated in a secondary assay. […] Thapsigargin also acts as a sarco/endoplasmic reticulum calcium ATPase (SERCA) inhibitor. Therefore, another SERCA inhibitor, 2,5-Di-tert-butylhydroquinone, was also added to the testing. In this secondary assay, CHO-7W cells were cultured as described above and plated into 24-well dishes at ∼200K/well. […] These hits were selected for their potency in primary screen, their structural features, their known activities, and availability of compound for additional testing. There were cerivastatin-only (negative control), + QVD-OPh (positive control), and for viability, vehicle-only (negative) controls. Cells were harvested by removing the media to a tube, adding […] trypsin to detach cells then neutralizing with media. […] Cells were centrifuged at 5000 rpm (2300 × g) for 5 min. Cell pellets were frozen until use. Forty μL cold RIPA buffer plus complete protease inhibitors (Roche) was added to each pellet and the pellets were reconstituted by pipetting up and down, incubating on ice for 30 min, vortexing, and centrifugation as above. Cell lysate supernatants were then assayed by APPΔC31 ELISA as described above. For most compounds, multiple/repeat studies were performed and two wells used for each condition. Statistical comparison was performed using one-way ANOVA for multiple comparisons, with a Dunnett post hoc test to compare each condition to the control. Further dose-response studies were performed on select compounds.

[4] = system: cerivastatin-induced APPΔC31 in CHO-7W cells; test: APPΔC31 AlphaLISA dose-response, cerivastatin-induced; format: cell-based, Chinese hamster; settings: 24 h
Method: The APPΔC31 AlphaLISA assay (Figures 2C–E) was run directly in the plate with the cell lysate as described above in “AlphaLISA to detect APPΔC31.” APPΔC31 levels were measured using the Envision plate reader and data were normalized to DMSO (100% APPΔC31 production) and Q-VD-OPh (MP Biomedicals) pan-caspase inhibitor at 30 μM (0%); these controls were present on each plate. In addition, some compounds of interest were further analyzed in a dose-response curve to determine IC50 values.
The broad-spectrum pan-caspase inhibitor Q-VD-OPh served as the positive control.
Lysates were prepared and APPΔC31 determined by ELISA. (B) CHO-7W cells were treated with 10 μM cerivastatin plus increasing doses of caspase and MEK inhibitors for 24 h. Lysates were prepared and APPΔC31 determined by AlphaLISA. Click here for additional data file.

[5] = system: cerivastatin-induced APPΔC31 in CHO-7W cells; test: APPΔC31 immunoblot of CHO-7W cell lysates; format: cell-based, Chinese hamster; settings: compound at 30 μM, 10 μM cerivastatin, 24 h
Method: For immunoprecipitation, approximately 300 μg cell lysate supernatants were brought to 250 μL with cold RIPA + PI buffer in microfuge tubes. One μL of 6E10 APP antibody (Covance) was added and the mixture was rotated overnight in a cold room. The next day, 25 μL of protein A/G beads (Santa Cruz Biotech) were added and the samples were rotated for 1.5 h in the cold room. The beads were then centrifuged down and washed four times with cold PBS. Forty μL 1x LDS sample buffer + DTT was added to the pellets, which were heated to 70°C for 10 min, vortexed and centrifuged. Supernatants were loaded onto Nupage 4–12% Bis-Tris gels (Life Technologies) for electrophoresis and were then transferred to 0.2 μm PVDF membrane for immunoblotting with the anti-APPΔC31 antibody.
(A) CHO-7W cells were treated with 10 μM cerivastatin (CS) along with varying concentrations of Q-VD-OPh (QVD) for 24 h. Cell lysates were prepared and immunoprecipitated with anti-APP (6E10) overnight at 4°C and then incubation with Protein A/G beads (Santa Cruz Biotech). The resulting pellets were incubated, electrophoresed using Nupage 4–12% Bis-Tris gels (Life Technologies) and the 0.2 μm PVDF membrane probed with anti-APPΔC31. (B) CHO-7W cells were treated with increasing concentrations of CS or 10 μM CS together with increasing concentrations of 3′-fluorobenzylspiperone maleate (3′-F-Sp) or 30 μM QVD for 24 h. […]

[6] = system: cerivastatin-induced APPΔC31 in I5 mouse hippocampal slice cultures; test: Ex vivo organotypic hippocampal slice cultures, APPΔC31 ELISA; settings: 72 h, read-out: inhibition of APPΔC31 production
From the text: I5 mice originally purchased from Jackson labs (JAX B6.Cg-Tg(PDGFB-APP)5Lms/J) were bred and maintained in the Buck Institute vivarium facility, and used under the guidelines of an approved institutional IACUC protocol. P5–7 day mice were sacrificed using CO2 gas and cervical dislocation according to established IACUC protocols. Brains were removed, and under sterile conditions, hippocampi were dissected out on ice in Hybernate media + 1:400 Glutamax, 1:100 Pen/Strep and 1:50 B27 supplement (all Life Technologies). Hippocampi were laid parallel on a tissue chopper (McIlwain) in a small amount of media and sliced at 400 μm thick. Millicell-CM 6-well cell culture inserts (Millipore, 0.4 μm) were prehydrated by pipetting 750 μL culture media under each well and placing in a 35°C, 5% CO2 incubator for at least 30 min. Culture media: 100 mL MEM-HEPES, 50 mL HBSS, 50 mL HI horse serum, 1 mL 100x Pen/Strep (all Gibco), 1.3 g (6.5 mg/mL) glucose, and 2 mL 200 μM (2 mM) Glutamax, sterile filtered. […] Protein was quantitated for each sample using Coomassie Plus reagent (Thermo). […]
Tissue was harvested and lysates analyzed for APPΔC31 by ELISA. Lysates were protein normalized and expressed as a % of control.

[7] = PAMPA / immobilized artificial membrane (IAM.PC.DD2) chromatography; format: in vitro ADME
From the text: Immobilized artificial membrane (IAM) chromatography such as PAMPA (parallel artificial membrane permeability assay) is used to predict a compound’s passive diffusion through membranes and may predict blood-brain barrier (BBB) penetrance.
To minimize variability between PAMPA assays for different compounds, the well-characterized, reliable IAM.PC.DD2 Regis Technologies analytical columns were used. In these 10 cm × 4.6 mm columns, the phospholipid is bonded on 10 μm, 300 Å, spherical aminopropyl silica and end capped with C10 and C3 amides.
Columns were connected to an Agilent high performance liquid chromatography system. […] The mobile phase was a mixture of water and methanol and a gradient was used for the elution of the compounds. The detector was set at 250 and 280 nm. After a compound was eluted, the retention time and void volume times were obtained from the chromatogram.
The IAM capacity factor (KIAM) was calculated using the equation: KIAM=tr−t0/t0 ; where tr is the
retention time of a compounds and t0 is the void volume time of the column. […] To predict the likelihood a compound would be BBB penetrant, we used the correlation described by [Yoon et al. (2006)]:
• (I) If KIAM/MW^4x10^10 > 0.85 the BBB penetration is predicted to be high • (II) If KIAM/MW^4x10^10 < 0.85 the BBB penetration is predicted to be low

[8] = system: APPΔC31 production in CHO-7W cells; test: Statin induction of APPΔC31, ELISA; format: cell-based, Chinese hamster; settings: 24 h, statins at 1, 5 and 10 μM
Method: An HRP-conjugated secondary antibody is then added and a colorimetric signal generated by enzymatic conversion of the tetramethylbenzidine (TMB) substrate. Protein levels were first determined using a colorimetric coomassie assay (Coomassie Plus, Thermo).
APPΔC31 was determined in cell lysates by ELISA.

[9] = in vitro; settings: Chinese hamster

## O=C(CCCN1CCC2(CC1)C(=O)N(Cc1cccc(F)c1)CN2c1ccccc1)c1ccc(F)cc1 [3′Fluorobenzylspiperone maleate, 3′-fluorobenzylspiperone maleate]
[1]
  effect on sAPPα (in words): increased sAPPα
[2]
  effect on total protein concentration with cerivastatin (in words): increased total protein concentration
[3]
  APPΔC31 Inh. (mean %): 78%
[4]; AlphaLISA dose-response (Figure 5C), cerivastatin-stimulated
  % Min (APPΔC31 dose-response): 25%
[4]; Cricetulus griseus, (A) AlphaLISA, cerivastatin-induced, read-out: IC50 (A), APPΔC31 inhibition
  IC50: 2200 nM
[5]
  effect on CS-induced APPΔC31 by immunoblot (in words): decreased
[6]
  inhibition at 30 µM: ~82%
[7]; IAM.PC.DD2 column, water/methanol gradient
  KIAM (IAM capacity factor): 3.2
[7]; IAM.PC.DD2 column, correlation of Yoon et al. (2006)
  KIAM/MW^4 x 10^10: 0.50
[7]; from KIAM/MW^4 x 10^10, cut-off 0.85
  BBB Penetration Prediction: low (If KIAM/MW^4x10^10 < 0.85 the BBB penetration is predicted to be low)

## COCc1c(C(C)C)nc(C(C)C)c(/C=C/[C@@H](O)C[C@@H](O)CC(=O)O)c1-c1ccc(F)cc1 [Cerivastatin]
[8]
  induction of APPΔC31 (in words): most effective; also recorded: did so at 1, 5, and 10 μM
[9]
  viability at 24 h, 10 µM: 15%
